Data on one compound can be found in patent publication US5077292A, “(2-imidazolin-2-ylamino) tetrahydroquinoxalines and methods for using same” (priority 1989, dated 1991).

The term EC50 denotes the concentration at which the effect is half-maximal. Higher therefore signals lower potency in that assay.

The test system of data set [1] is urine flow. As to the kind of experiment: renal effects (urine flow), intraduodenal administration. The format is in vivo, Sprague-Dawley rats. Particulars: test run 3 times. On the procedure:
The tetrahydroquinoxaline produced in Example 1 was tested for renal and blood pressure effects using the following method.
Young male (20-24 weeks old) Sprague-Dawley rats were used. Under ketamine (60 mg/kg b.wt. i.m.) and pentobarbital (i.p. to effect) anesthesia, medical grade plastic tubes were implanted into the abdominal aorta and vena cava via the femoral vessels. In addition, a Silastic-covered stainless steel cannula were sewn in the urinary bladder. After the surgery, the rats were housed individually and were allowed free access to food and water until the day of the experiment.
For about 7 to 10 days before surgery and during recovery, the rats were accustomed to a restraining cage by placement in the cage for 2 to 3 hours every 2nd and 3rd day. The cage was designed for renal clearance studies (a model G Restrainer sold by Braintree Scientific, Inc., Braintree, Mass.). The animals' adjustment to the cage was judged by the stability of blood pressure and heart rate.
For an experiment, a rat was placed in the restraining cage, and the arterial line was connected to a Statham pressure transducer and a Beckman Dynograph R61 to monitor the mean arterial blood pressure, hereinafter referred to as MAP. The venous line was connected to an infusion pump system for infusion of replacement fluid. The tetrahydroquinoxaline was administered intraduodenally by cannula. The bladder cannula was extended with a silastic tube to facilitate collection of urine in preweighed tubes. The volume of urine was measured gravimetrically. Body weight was recorded before and after the experiment.
Throughout the experiments, 0.9% NaCl containing 10% polyfructosan (Inutest) and 1% sodium PAH was infused at a rate of 20 microliters/min. An equilibration period of 60 minutes was followed by two consecutive 30 minute control clearance periods. Then, the tetrahydroquinoxaline was administered for 90 minutes. Urine collection was resumed 10 minutes after the start of tetrahydroquinoxaline administration. By this time the washout of the bladder cannula dead space (approximately 200 microliters) was completed. Three additional clearance measurements were made. Blood samples (150 microliters) were collected at the midpoint of urine collections. Plasma was separated and saved for analyses, and the cells were resuspended in saline and returned to the animals. Water and sodium loss was carefully replaced i.v. by a variable speed infusion pump.

Data set [2] has as its system mean arterial blood pressure. As to the kind of experiment: blood pressure effects (MAP) in anti-diarrheal test. The data set is classed as in vivo, rats. Particulars: p.o. How it is done: The tetrahydroquinoxaline produced in Example 1 was tested for anti-diarrheal effects and blood pressure effects using the following method.
Cecectomies were performed in unfasted rats as follows. Under anesthesia with methohexital (60 mg/kg. i.p.), a laparotyphlectomy was initiated with a 2 cm midventral incision. The cecum was lifted from the abdominal cavity and exteriorized onto a gauze drape. The cecal apex was freed by severing the avascular area of the mesocecum. Next, a ligature of #1 silk suture was positioned so as to occulude the cecum and its vasculature without compromising ileo-colonic patency. After the ligature was secured and ileo-colonic patency confirmed, the cecum was resected, and the remaining exposed cecal mucosa was washed with saline and cauterized. The intestinal segment was then returned to the abdominal cavity, and the abdominal muscle facia closed with interrupted 4/0 chromic-gut sutures. The dermal incision was closed with 9 mm stainless steel wound clips that were removed approximately 1 week post surgery. An arterial line was also implanted into the abdominal aorta and vena cava via the femoral vessels, in a manner similar to that described in Example 10. Immediately following the surgical procedure, animals were returned to their cages and allowed free access to food and water. Animals were permitted at least 48 hour recovery period before being used in experiments.
The cecectomized rats were put into individual wire-bottomed cages placed over sheets of clean paper, and deprived of food and water for the duration of the assay. The MAP was monitored, as described in Example 10, throughout the assay. Rats were given a 2 hour acclimatization period prior to the start of the assay in order to eliminate sporadic episodes of anxiety-induced defecation. During this period they were observed also for consistent occurrences of pelleted feces; an animal producing other than a pelleted stool was disqualified from the study.
Diarrhea was induced with oral administration of 16,16-dimethyl prostaglandin E2 (dmPGE2) in 3.5% EtOH. The tetrahydro-quinoxaline was administered by gavage after the onset of diarrheal episodes. The cage papers were removed and examined at 30 minute intervals for dmPGE2 -induced diarrhea. Fecal output was recorded at each interval and fecal consistency is assigned a numerical score in each experimental group as follows: 1=normal pelleted stool; 2=soft-formed stools; 3=water stool and/or diarrhea. The fecal output index (FOI) is defined as the summation of the number of defecation episodes and their ranked consistency score within an observation period.

The target of data set [3] is T1, Alpha 2 Adrenergic Receptors (Oryctolagus cuniculus, UniProt Q5ZQK3).
T1 construct: from tissue; host or cells: New Zealand white rabbit vas deferens, prostatic end, field stimulated
T1 sequence (Q5ZQK3 1-451): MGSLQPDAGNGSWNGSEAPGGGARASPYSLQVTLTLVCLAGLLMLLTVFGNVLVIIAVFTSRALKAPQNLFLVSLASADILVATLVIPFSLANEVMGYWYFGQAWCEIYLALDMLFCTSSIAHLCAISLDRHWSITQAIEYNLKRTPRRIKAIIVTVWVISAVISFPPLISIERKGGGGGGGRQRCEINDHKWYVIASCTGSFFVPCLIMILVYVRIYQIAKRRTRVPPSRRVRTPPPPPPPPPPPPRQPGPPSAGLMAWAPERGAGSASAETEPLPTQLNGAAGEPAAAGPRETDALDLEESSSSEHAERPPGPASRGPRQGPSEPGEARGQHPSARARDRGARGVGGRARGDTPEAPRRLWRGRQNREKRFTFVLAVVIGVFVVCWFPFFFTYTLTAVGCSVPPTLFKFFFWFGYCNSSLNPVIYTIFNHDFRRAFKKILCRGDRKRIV
As to the kind of experiment: Rabbit Vas Deferens: Alpha 2 Adrenergic Receptors. Particulars: 35° C., field stimulated, 50% reduction in response height, n = number of test runs. The data set is classed as cell-based, New Zealand white rabbit. On the procedure: The tetrahydroquinoxalines produced in Examples 1 to 3 were tested for activity using the following in vitro methods.
Rabbit Vas Deferens: Alpha 2 Adrenergic Receptors
New Zealand white rabbits (2-3 kg) were killed by CO2 inhalation and the vasa deferentia removed. The prostatic ends of the vasa deferentia (2-3 cm lengths) were mounted between platinum ring electrodes in 9 ml organ baths and bathed in Krebs bicarbonate solution of the following composition (millimolar): NaCl 118.0; KCl 4.7; CaCl2 2.5; MgSO4 1.2; KH2 PO4 1.2; glucose 11.0; NaHCO3 25.0; which solution was maintained at 35° C. and bubbled with 95% O2 and 5% CO2. The initial tension of the vas deferens was 0.5 g. The tissues were left to equilibrate for 30 minutes before stimulation was started. Vasa were then field stimulated (0.1 Hz, 2 ms pulse width at 90 mA) using a square wave stimulator (WPI A310 Accupulser with A385 stimulus). […] Cumulative concentration-response curves were obtained for the tetrahydroquinoxaline being tested with a 4 minute contact time at each concentration. The reduction in response height was measured and expressed as a percentage of the height of the response before the addition of tetrahydroquinxoaline. Concentration response curves for each of tetrahydroquinoxalines were plotted. The effective concentration required for a 50% reduction in response height, expressed as EC50, were obtained from these curves and are set forth below.

Take `Brc1c(NC2=NCCN2)ccc2c1NCCN2` [Example 1, 5-Bromo-6-(2-imidazolin-2-ylamino)-1,2,3,4-tetrahydroquinoxaline]: the “Increase in Urine Flow” value was 0 microliters/min./100 g of body in data set [1] (0.01 mg/kg); 4 microliters/min./100 g of body in data set [1] (0.03 mg/kg); 16 microliters/min./100 g of body in data set [1] (0.1 mg/kg, P less than 0.05); 24 microliters/min./100 g of body in data set [1] (0.3 mg/kg, P less than 0.05); 32 microliters/min./100 g of body in data set [1] (1 mg/kg, P less than 0.05). In addition, the “Increase in MAP” value in data set [2] (0.01 mg/kg) is recorded as 0 mm Hg; in data set [2] (0.03 mg/kg), 0 mm Hg; in data set [2] (0.10 mg/kg), 0 mm Hg; in data set [2] (0.30 mg/kg), 0 mm Hg; in data set [2] (1.00 mg/kg), 0 mm Hg; in data set [2] (3.00 mg/kg), 10 mm Hg. The “Increase in MAP” value in data set [2] (10.00 mg/kg) was 25 mm Hg. The “effect in blood pressure accompanying anti-diarrheal effects (in words)” value in data set [2] (cecectomized rats) is reported as “no or a relatively minimal effect in blood pressure”. This compound also showed a concentration giving a half-maximal response (EC50) in data set [3] of 1.75 nM.
